Reference: US5340807A, “Tricyclic compounds and intermediates thereof” (priority 1991, dated 1994)

Legend:
male ddy strain mice = assay: Test for acute toxicity (minimum lethal dose, oral); type: in vivo; details: mortality observed seven days after administration
Experimental: Groups of 3 male ddy strain mice weighing 20±1 g were used. The test compounds were orally administered. Seven days after administration, the mortality was observed and the minimum lethal dose (MLD) was determined.

[1] = tested on: acyl coenzyme A: cholesterol acyltransferase (ACAT); assay: Test for ACAT inhibitory activity (microsome fraction prepared from rabbit liver); type: biochemical; details: 10^-6 M, 37° C., 10 minutes
Experimental: Test for ACAT inhibitory activity The test for ACAT inhibitory activity was performed by a modified method of the method of Brecher et al. Biochim. Biophys. […] The radioactivity of the cholesterol ester spot was determined by a liquid scintillation counter. The radio-activity for each test compound was calculated by the difference between the radioactivity with the microsome fraction and the radioactivity without the microsome fraction. The radioactivity of control was determined in a similar manner without any test compound.

serum cholesterol level = assay: Inhibition effect on serum cholesterol level in hamster with dietary hyperlipemia; type: in vivo; details: Golden hamster, 2% cholesterol feed for 3 days; 30 mg/kg orally once a day
Experimental: Inhibition effect on serum cholesterol level in hamster with dietary hyperlipemia
Golden hamster (SLC, male, age of 6 weeks) was made free access to feed containing 2% cholesterol for 3 days. Each test compound was suspended in olive oil and orally administered once a day in a dose of 30 mg/kg during the feeding. (A: Test Group administered with the test compound, B: Control Group administered with olive oil only). In Group C, feed free from cholesterol was fed for 3 days. On the fourth day, blood sample was collected from the descending aorta under pentobarbital anesthesia and cholesterol level in serum was determined. The total cholesterol level in serum of each group was determined and the inhibition rate for the test compound was calculated according to the following equation. [formula]

| Structure (SMILES) | Acute Toxicity (MLD), minimum lethal dose (male ddy strain mice) | Inhibiting rate(%) of ACAT [1] | Inhibition Rate (%) of total cholesterol level in serum (serum cholesterol level) |
| --- | --- | --- | --- |
| CC(C)c1cccc(C(C)C)c1NC(=O)C1c2ccccc2CSc2ccc(Br)cc21 (stereo not drawn) [Compound 32, 2-Bromo-6,11-dihydro-N-(2,6-diisopropylphenyl)dibenzo[b,e]-thiepin-11-carboxamide] | > 300 mg/kg | 88% | 67% |
| CC(C)c1cccc(C(C)C)c1NC(=O)C1c2ccccc2COc2ccc(Br)cc21 (stereo not drawn) [Compound 18, 2-Bromo-6,11-dihydro-N-(2,6-diisopropylphenyl)dibenz[b,e]-oxepin-11-carboxamide] | > 300 mg/kg | 100% | 114% |
